Test systems include SR leukemia; SF-295 CNS; SF-268 CNS; M14 melanoma; HCT-15 colon; LOX IMVI melanoma; COLO 205 colon; UO-31 renal; SK-MEL-2 melanoma; RXF 393 renal; HCT-116 colon; DU-145 prostate; UACC-257 melanoma; HL-60(TB) leukemia; HS 578T breast.
What all share (test): inhibition of tumour cell growth, NCI panel, 48 h

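Results reflect a 48-hour exposure of cells in 96-well plates to compound at five concentrations. At the GI50, growth is halved. TGI: concentration producing complete growth inhibition.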

Take `CC1=CCC2CC1NC(=O)CCOCCC(=O)NC2(C)C` (stereo not given): the TGI in the test on SR leukemia, in the test on SF-295 CNS, in the test with SF-268 CNS, in the test with M14 melanoma, in the test with HCT-15 colon and with LOX IMVI melanoma was greater than 100 µM in each case. The TGI in the test on COLO 205 colon, with UO-31 renal, in the test with SK-MEL-2 melanoma, in the test on RXF 393 renal, with HCT-116 colon and with DU-145 prostate was greater than 100 µM each time. Besides, the TGI with UACC-257 melanoma is greater than 100 µM.
For `CN(C(=O)c1ccco1)C(=S)N1CCN(c2ccccn2)CC1`, the TGI in the test with SF-295 CNS, in the test on SF-268 CNS, in the test with M14 melanoma, with HL-60(TB) leukemia, in the test on HCT-15 colon and with LOX IMVI melanoma was greater than 100 µM in each case. Also, the TGI in the test on COLO 205 colon, with UO-31 renal, in the test with SK-MEL-2 melanoma, in the test with RXF 393 renal, in the test on HCT-116 colon and with UACC-257 melanoma was greater than 100 µM each time.
On to `CCOC(=O)c1cc(C2CCN(Cc3ccccc3)C2=S)c(C(=O)C=[N+]=[N-])[nH]1` (stereo not given), for which the TGI in the test on SF-295 CNS was 66.8 µM; with SF-268 CNS it was 73.9 µM; in the test with M14 melanoma it was 48.7 µM; in the test with HCT-15 colon, 53.8 µM; with HS 578T breast, greater than 100 µM; with COLO 205 colon it was greater than 100 µM. The TGI with UO-31 renal is 57.5 µM; in the test with SK-MEL-2 melanoma it was 63 µM; in the test with RXF 393 renal, 75.5 µM; in the test with HCT-116 colon, greater than 100 µM; in the test on DU-145 prostate, greater than 100 µM; in the test on UACC-257 melanoma it was 71.4 µM.
On to `O=c1c([OH2+])c(-c2ccc(O)cc2[O-])oc2cc(O)cc([O-])c12.O=c1c([OH2+])c(-c2ccc(O)cc2[O-])oc2cc(O)cc([O-])c12.[Ti+4]`, for which the TGI in the test with SF-295 CNS, in the test on SF-268 CNS, in the test on M14 melanoma, with HL-60(TB) leukemia, with HCT-15 colon and with LOX IMVI melanoma was greater than 100 µM throughout. Moreover, the TGI in the test on COLO 205 colon, in the test with UO-31 renal, in the test with SK-MEL-2 melanoma, in the test with RXF 393 renal, in the test with HCT-116 colon and in the test on UACC-257 melanoma was greater than 100 µM each time. Also, in the test on RXF 393 renal, the GI50 was greater than 100 µM.
`COC(=O)C1(C)NCCc2c1[nH]c1ccccc21` (stereo not given): the TGI in the test with SR leukemia, in the test on SF-295 CNS, with SF-268 CNS, in the test with M14 melanoma, with HCT-15 colon and in the test on COLO 205 colon was greater than 100 µM in each case. Further, the TGI in the test with UO-31 renal, in the test with SK-MEL-2 melanoma, in the test with RXF 393 renal and in the test with HCT-116 colon was greater than 100 µM each time.
Take `NC(Cc1ccc(B(O)O)cc1)C(=O)NC(CO)CO` (stereo not given): the TGI in the test on SR leukemia, in the test on SF-295 CNS, in the test on SF-268 CNS, with M14 melanoma, with HCT-15 colon and in the test on LOX IMVI melanoma was greater than 100 µM each time. Moreover, the TGI in the test on HS 578T breast, in the test with COLO 205 colon, in the test with UO-31 renal, in the test with SK-MEL-2 melanoma, in the test on RXF 393 renal and in the test with HCT-116 colon was greater than 100 µM in each case. Also, in the test with UACC-257 melanoma, the TGI is greater than 100 µM.
On to `COc1cccc(NC(=O)C(=O)C2C=CCS2(=O)=O)c1` (stereo not given), for which the TGI in the test on SR leukemia, with SF-295 CNS, in the test with SF-268 CNS, with M14 melanoma, in the test on HL-60(TB) leukemia and in the test on HCT-15 colon was greater than 100 µM in each case. For the same compound, the TGI in the test on LOX IMVI melanoma, in the test with COLO 205 colon, in the test on UO-31 renal, in the test with SK-MEL-2 melanoma, in the test with RXF 393 renal and in the test with HCT-116 colon was greater than 100 µM in each case. Moreover, the TGI in the test on UACC-257 melanoma is greater than 100 µM.
As for `N#Cc1ccc(C2NN=CC23C(=O)c2ccccc2OC3c2ccccc2)cc1` (stereo not given), the TGI in the test on SR leukemia, with SF-295 CNS, in the test on SF-268 CNS, in the test with M14 melanoma, in the test with HL-60(TB) leukemia and in the test with HCT-15 colon was greater than 100 µM throughout. Further, the TGI was greater than 100 µM with LOX IMVI melanoma; greater than 100 µM in the test on HS 578T breast; 38 µM in the test with COLO 205 colon; 96.8 µM with UO-31 renal; greater than 100 µM in the test on SK-MEL-2 melanoma; greater than 100 µM in the test with RXF 393 renal. Also, the results for the TGI in the test on HCT-116 colon, in the test with DU-145 prostate and with UACC-257 melanoma were 69 µM, greater than 100 µM and greater than 100 µM, respectively.
On to `CCOC(=O)C(CCc1ncnc2c1ncn2Cc1ccccc1)(CCc1ncnc2c1ncn2Cc1ccccc1)C(=O)OCC`, for which the TGI with SR leukemia, in the test on SF-295 CNS, with SF-268 CNS, with M14 melanoma, with HL-60(TB) leukemia and in the test with HCT-15 colon was greater than 100 µM throughout. For the same compound, the TGI in the test with LOX IMVI melanoma was greater than 100 µM; in the test on HS 578T breast, greater than 100 µM; in the test with COLO 205 colon, greater than 100 µM; with UO-31 renal it was 10.9 µM; in the test with SK-MEL-2 melanoma it was greater than 100 µM; with RXF 393 renal it was greater than 100 µM. Also, the TGI with HCT-116 colon, with DU-145 prostate and in the test on UACC-257 melanoma was greater than 100 µM throughout.
For `O=c1ccnc2ccc3n[nH][nH]c3c12`, the TGI with SF-295 CNS, in the test on SF-268 CNS, in the test on M14 melanoma, in the test with HL-60(TB) leukemia, in the test with HCT-15 colon and with COLO 205 colon was greater than 100 µM each time. Moreover, the TGI in the test on SK-MEL-2 melanoma, in the test with RXF 393 renal, in the test with HCT-116 colon and in the test with UACC-257 melanoma was greater than 100 µM each time.
As to `CSCCC(C(=O)O)N(CC1(O)OCC(O)C(O)C1O)N=O` (stereo not given), the TGI with M14 melanoma, in the test on HL-60(TB) leukemia, in the test on LOX IMVI melanoma, in the test on COLO 205 colon, with UO-31 renal and with SK-MEL-2 melanoma was greater than 100 µM throughout. Moreover, the TGI in the test with RXF 393 renal, in the test on HCT-116 colon and in the test on UACC-257 melanoma was greater than 100 µM each time.

The record behind these values is PubChem BioAssay (NCI).
